Results from BigSolDB 2.1.

Cc1nc2n(c(=O)c1CCN1CCC(c3noc4cc(F)ccc34)CC1)CCCC2
solubility (mole fraction)
Details | 278.15 K | 283.15 K | 288.15 K | 293.15 K | 298.15 K | 303.15 K | 308.15 K | 313.15 K
in acetone | 0.000769 | 0.00111 | 0.00135 | 0.00166 | 0.00208 | 0.00251 | 0.00309 | 0.0039
in ethanol | 0.000876 | 0.00107 | 0.00133 | 0.00156 | 0.00209 | 0.00259 | 0.00333 | 0.00427
in ethyl acetate | 0.00113 | 0.00144 | 0.00165 | 0.00207 | 0.00248 | 0.00297 | 0.00373 | 0.00464
in isobutyl acetate | 0.000791 | 0.00106 | 0.00129 | 0.0015 | 0.00183 | 0.00226 | 0.00266 | 0.0033
in isopropanol | 0.00047 | 0.0006 | 0.000714 | 0.000853 | 0.00111 | 0.00134 | 0.00193 | 0.00271
in isopropyl acetate | 0.000742 | 0.000884 | 0.00102 | 0.00125 | 0.0015 | 0.00186 | 0.00225 | 0.0027
in methanol | 0.00204 | 0.00226 | 0.00273 | 0.00331 | 0.00407 | 0.00506 | 0.00623 | 0.00787
in methyl acetate | 0.00124 | 0.00153 | 0.0018 | 0.00219 | 0.00264 | 0.00329 | 0.00397 | 0.00489
in n-butanol | 0.00144 | 0.00183 | 0.00225 | 0.00291 | 0.00368 | 0.00479 | 0.00621 | 0.00792
in n-butyl acetate | 0.00112 | 0.00129 | 0.00159 | 0.00189 | 0.00241 | 0.00282 | 0.00341 | 0.00386
in n-propanol | 0.00111 | 0.00149 | 0.00199 | 0.00248 | 0.0031 | 0.00409 | 0.00532 | 0.00683
in n-propyl acetate | 0.00116 | 0.00147 | 0.00166 | 0.00202 | 0.00242 | 0.00288 | 0.00357 | 0.00424
in sec-butanol | 0.00187 | 0.00244 | 0.00286 | 0.00361 | 0.00464 | 0.00604 | 0.00769 | 0.00987
